# Reference: ChEMBL document CHEMBL5385844, “Discovery of novel imidazole chemotypes as isoform-selective JNK3 inhibitors for the treatment of Alzheimer's disease” (Eur J Med Chem, 2023)
# The source made the active and inactive calls. No cut-off for these calls is given here.
# Columns and labels:
# [1] = molecular target: Mitogen-activated protein kinase 10 (Homo sapiens, UniProt P53779); assay: Inhibition of human JNK3 incubated for 40 mins in presence of ATP and [gamma33P-ATP] by scintillation counting method
# Chain of Mitogen-activated protein kinase 10 (P53779 whole entry): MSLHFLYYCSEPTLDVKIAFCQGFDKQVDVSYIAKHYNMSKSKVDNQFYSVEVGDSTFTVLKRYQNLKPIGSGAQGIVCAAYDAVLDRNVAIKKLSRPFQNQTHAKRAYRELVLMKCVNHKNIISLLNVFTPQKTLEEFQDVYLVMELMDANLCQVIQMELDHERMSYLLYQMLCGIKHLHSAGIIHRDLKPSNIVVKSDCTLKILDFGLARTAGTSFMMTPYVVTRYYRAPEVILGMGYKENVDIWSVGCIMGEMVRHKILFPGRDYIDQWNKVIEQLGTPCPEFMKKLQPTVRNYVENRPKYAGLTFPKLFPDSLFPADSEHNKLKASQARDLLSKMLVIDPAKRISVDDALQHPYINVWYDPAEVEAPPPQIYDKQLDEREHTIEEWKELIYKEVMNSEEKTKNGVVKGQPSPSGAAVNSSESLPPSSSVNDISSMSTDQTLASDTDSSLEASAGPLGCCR
# [2] = Oral bioavailability in Sprague-Dawley rat at 15 mg/kg measured upto 24 hrs by UPLC analysis; format: ADME, organism-based; details: in vivo
# [3] = Half life in Sprague-Dawley rat at 15 mg/kg, po measured upto 24 hrs by UPLC analysis; format: ADME, organism-based; details: in vivo
# [4] = Half life in Sprague-Dawley rat at 1 mg/kg, iv measured upto 24 hrs by UPLC analysis; format: ADME, organism-based; details: in vivo
# [5] = Tmax in Sprague-Dawley rat at 15 mg/kg, po measured upto 24 hrs by UPLC analysis; format: ADME, organism-based; details: in vivo
# [6] = Cmax in Sprague-Dawley rat at 15 mg/kg, po measured upto 24 hrs by UPLC analysis; format: ADME, organism-based; design: dose 15 mg/kg, time < 24 hrs, route po; details: in vivo
# [7] = AUC in Sprague-Dawley rat at 15 mg/kg, po measured upto 24 hrs by UPLC analysis; format: ADME, organism-based; design: dose 15 mg/kg, time < 24 hrs, route po; details: in vivo
# [8] = AUC in Sprague-Dawley rat at 1 mg/kg, iv measured upto 24 hrs by UPLC analysis; format: ADME, organism-based; design: dose 1 mg/kg, time < 24 hrs, route iv; details: in vivo
# [9] = tested on: Cortical neurone; assay: Neuroprotective activity against Amyloid beta (1 to 42)-induced toxicity in rat cortical neuron assessed as cell viability at 20 uM measured after 24 hrs by MTT assay; format: functional; details: read-out: Activity
# [10] = tested on: Cortical neurone; assay: Neuroprotective activity against Amyloid beta (1 to 42)-induced toxicity in rat cortical neuron assessed as cell viability at 20 uM measured after 48 hrs by MTT assay; format: functional; details: read-out: Activity
# [11] = molecular target: T1, Mitogen-activated protein kinase 8 (Homo sapiens, UniProt P45983); assay: Inhibition of human JNK1 incubated for 40 mins in presence of ATP and [gamma33P-ATP] by scintillation counting method
# T1 sequence (P45983 whole entry): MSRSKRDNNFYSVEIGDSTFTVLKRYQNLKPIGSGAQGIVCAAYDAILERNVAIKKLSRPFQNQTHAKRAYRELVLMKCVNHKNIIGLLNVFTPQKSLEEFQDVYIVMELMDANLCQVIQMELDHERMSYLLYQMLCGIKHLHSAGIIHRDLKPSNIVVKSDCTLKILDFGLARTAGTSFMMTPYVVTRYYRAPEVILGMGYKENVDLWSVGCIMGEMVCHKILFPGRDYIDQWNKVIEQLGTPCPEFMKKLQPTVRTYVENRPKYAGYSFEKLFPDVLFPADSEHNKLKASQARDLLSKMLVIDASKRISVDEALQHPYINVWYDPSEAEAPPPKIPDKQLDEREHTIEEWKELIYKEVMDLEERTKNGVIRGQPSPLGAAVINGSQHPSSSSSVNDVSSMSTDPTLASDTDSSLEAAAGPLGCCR
# [12] = molecular target: T2, Mitogen-activated protein kinase 9 (Homo sapiens, UniProt P45984); assay: Inhibition of human JNK2 incubated for 40 mins in presence of ATP and [gamma33P-ATP] by scintillation counting method
# T2 sequence (P45984 whole entry): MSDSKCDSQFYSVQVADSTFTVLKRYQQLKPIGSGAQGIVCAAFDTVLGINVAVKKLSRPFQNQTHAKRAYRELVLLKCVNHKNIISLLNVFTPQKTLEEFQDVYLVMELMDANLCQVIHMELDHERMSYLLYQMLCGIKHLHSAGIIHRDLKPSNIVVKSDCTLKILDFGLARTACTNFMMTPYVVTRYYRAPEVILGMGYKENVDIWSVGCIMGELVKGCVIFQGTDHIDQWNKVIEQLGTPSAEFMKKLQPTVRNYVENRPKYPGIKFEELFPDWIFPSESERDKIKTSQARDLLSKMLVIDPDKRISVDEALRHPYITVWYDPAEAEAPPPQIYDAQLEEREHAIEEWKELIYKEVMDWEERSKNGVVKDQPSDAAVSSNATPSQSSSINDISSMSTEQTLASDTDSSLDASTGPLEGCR
# [13] = molecular target: T1, Mitogen-activated protein kinase 8; assay: Inhibition of JNK1 (unknown origin) by ATP-competitive assay
# [14] = molecular target: T2, Mitogen-activated protein kinase 9; assay: Inhibition of JNK2 (unknown origin) by ATP-competitive assay
# [15] = tested on: Cortical neurone; assay: Neuroprotective activity against Amyloid beta (1 to 42)-induced toxicity in rat cortical neuron assessed as cell viability measured after 24 to 48 hrs by MTT assay; format: functional, cell-based; details: time 24-48 hrs
# [16] = molecular target: T1, Mitogen-activated protein kinase 8; assay: Inhibition of JNK1 (unknown origin) assessed as incorporation of 33P-ATP
# [17] = Permeability of the compound by PAMPA-BBB assay; format: ADME; details: read-out: permeability
# [18] = Efflux ratio of apparent permeability basolateral to apical side over apical to basolateral side in human Caco-2 cells at 10 uM incubated for 1 hr by LC-MS/MS analysis; format: ADME, cell-based
# [19] = Apparent permeability across basolateral to apical side in human Caco-2 cells at 10 uM incubated for 1 hr by LC-MS/MS analysis; format: ADME, cell-based
# [20] = Apparent permeability across apical to basolateral side in human Caco-2 cells at 10 uM incubated for 1 hr by LC-MS/MS analysis; format: ADME, cell-based
# [21] = Toxicity in homozygous 3 x Tg mouse model assessed as visual inspection at 60 mg/kg, po daily for 2.2 months; format: organism-based; details: in vivo, 1606 h
# [22] = tested on: Mus musculus; assay: Anti-alzheimer activity against homozygous 3 x Tg mouse model assessed as time spent in platform quadrant at 60 mg/kg, po administered daily for 2.2 months and measured after 68 to 73 days of treatment by Morris water maze test (reference value: 14.26 +/- 1.62 sec); format: functional; details: 1606 h
# [23] = tested on: Mus musculus; assay: Anti-alzheimer activity against homozygous 3 x Tg mouse model assessed as escape latency time at 30 mg/kg, po administered daily for 2.2 months and measured after 60 days of treatment by Passive avoidance test (reference value: 40.6 +/- 6 sec); format: functional; details: 1606 h
# [24] = tested on: Mus musculus; assay: Anti-alzheimer activity against homozygous 3 x Tg mouse model assessed as spontaneous alteration at 60 mg/kg, po administered daily for 2.2 months and measured after 57 days of treatment by Y-maze test (reference value: 45.05 +/- 3.61%); format: functional; details: 1606 h
# [25] = tested on: Mus musculus; assay: Anti-alzheimer activity against APP/PS1 dE9 double transgenic mouse model assessed as time spent in platform quadrant at 30 mg/kg, po administered 3 times/week for 1 month and measured after 40 to 45 days of treatment by Morris water maze test (reference value: 15.94 +/- 2.08 sec); format: functional; details: time 1 months, 730 h
# [26] = tested on: Mus musculus; assay: Anti-alzheimer activity against APP/PS1 dE9 double transgenic mouse model assessed as time spent in platform quadrant at 10 mg/kg, po administered 3 times/week for 1 month and measured after 40 to 45 days of treatment by Morris water maze test (reference value: 15.94 +/- 2.08 sec); format: functional; details: time 1 months, 730 h
# [27] = tested on: Mus musculus; assay: Anti-alzheimer activity against APP/PS1 dE9 double transgenic mouse model assessed as escape latency time at 30 mg/kg, po administered 3 times/week for 1 month and measured after 27 days of treatment by Passive avoidance test (reference value: 24.8 +/- 4.1 sec); format: functional; details: time 1 months, 730 h
# [28] = tested on: Mus musculus; assay: Anti-alzheimer activity against APP/PS1 dE9 double transgenic mouse model assessed as escape latency time at 10 mg/kg, po administered 3 times/week for 1 month and measured after 27 days of treatment by Passive avoidance test (reference value: 24.8 +/- 4.1 sec); format: functional; details: time 1 months, 730 h
# [29] = tested on: Mus musculus; assay: Anti-alzheimer activity against APP/PS1 dE9 double transgenic mouse model assessed as spontaneous alteration at 30 mg/kg, po administered 3 times/week for 1 month and measured after 27 days of treatment by Y-maze test (reference value: 45.51 +/- 2.92%); format: functional; details: time 1 months, 730 h
# [30] = tested on: Mus musculus; assay: Anti-alzheimer activity against APP/PS1 dE9 double transgenic mouse model assessed as spontaneous alteration at 10 mg/kg, po administered 3 times/week for 1 month and measured after 27 days of treatment by Y-maze test (reference value: 45.51 +/- 2.92%); format: functional; details: time 1 months, 730 h
# [31] = Toxicity in APP/PS1 mouse assessed as abnormal symptoms at 60 mg/kg, po treated for 2 months; format: organism-based; details: in vivo, 1460 h
# [32] = Toxicity in APP/PS1 mouse assessed as weight change at 60 mg/kg, po treated for 2 months; format: organism-based; details: in vivo, 1460 h
# [33] = Toxicity in APP/PS1 mouse assessed as weight change at 30 mg/kg, po treated for 2 months; format: organism-based; details: in vivo, 1460 h
# [34] = Toxicity in APP/PS1 mouse assessed as abnormal symptoms at 30 mg/kg, po treated for 2 months; format: organism-based; details: in vivo, 1460 h
# [35] = Brain to Plasma ratio in Sprague-Dawley rat at 30 mg/kg, po measured at Tmax; format: ADME, organism-based; details: read-out: BPR
# [36] = Plasma concentration in Sprague-Dawley rat at 30 mg/kg, po measured at Tmax; format: ADME, organism-based
# [37] = Drug uptake in Sprague-Dawley rat brain at 30 mg/kg, po measured at Tmax; format: ADME, organism-based; details: in vivo
# [38] = Oral bioavailability in Sprague-Dawley rat at 3 mg/kg measured upto 24 hrs by UPLC analysis; format: ADME, organism-based; details: in vivo
# [39] = Half life in Sprague-Dawley rat at 3 mg/kg, po measured upto 24 hrs by UPLC analysis; format: ADME, organism-based; details: in vivo
# [40] = Tmax in Sprague-Dawley rat at 3 mg/kg, po measured upto 24 hrs by UPLC analysis; format: ADME, organism-based; details: in vivo
# [41] = Cmax in Sprague-Dawley rat at 3 mg/kg, po measured upto 24 hrs by UPLC analysis; format: ADME, organism-based; design: dose 3 mg/kg, time < 24 hrs, route po; details: in vivo
structure (smiles),measurement,setting,value
N#CCc1cnc(-c2ccc(F)c(C(F)(F)F)c2)n1-c1ccnc(NC2CCCCC2)n1,IC50,[1]; read-out: IC50,10000 nM
N#CCc1cnc(-c2ccc(Cl)c(Cl)c2)n1-c1ccnc(N[C@H]2CCCN(C(=O)C3CC3)C2)n1,bioavailability,[2],6.2%
same,half-life,[3],105 min
same,half-life,[4],12.6 min
same,Tmax,[5],40.2 min
same,Cmax,[6],406 ng/mL
same,AUC at 24 h,[7],839 ng·h/mL
same,AUC at 24 h,[8],902 ng·h/mL
same,viability at 20 µM,[9],72.4%
same,viability at 20 µM,[10],47%
same,IC50,[1]; read-out: IC50,2 nM
same,IC50,[11],312 nM
same,IC50,[12],44.2 nM
O=C1c2ccccc2C2=NNC3=CC=CC1C32 (centres undefined),IC50,[13],40 nM
same,IC50,[14],40 nM
N#CCc1cnc(-c2ccc(F)c(C(F)(F)F)c2)n1-c1ccnc(N[C@H]2CCCNC2)n1,IC50,[1],Not Active
N#CCc1cnc(-c2ccc3ccccc3n2)n1-c1ccnc(N[C@H]2CCCN(C(=O)C3CC3)C2)n1,IC50,[1]; read-out: IC50,396 nM
N#CCc1cnc(-c2ccc3c(c2)OCO3)n1-c1ccnc(NC2CCCCC2)n1,IC50,[1]; read-out: IC50,814 nM
N#CCc1cnc(-c2ccc3ccccc3c2)n1-c1ccnc(N[C@H]2CCCCN(C(=O)C3CC3)C2)n1,IC50,[1]; read-out: IC50,24.1 nM
same,IC50,[11],962 nM
same,IC50,[12],241 nM
N#CCc1cnc(-c2ccc3ccccc3c2)n1-c1ccnc(NC2CCCCC2)n1,IC50,[1]; read-out: IC50,142 nM
CC(C)(C)C(=O)N1CCC[C@H](Nc2nccc(-n3c(CC#N)cnc3-c3ccc(Cl)c(Cl)c3)n2)C1,IC50,[1]; read-out: IC50,8 nM
same,IC50,[11],444 nM
same,IC50,[12],81 nM
Oc1ccc(/C=C/c2cc(O)cc(O)c2)cc1,Activity,[15],Active
N#CCc1cnc(-c2ccc3occc3c2)n1-c1ccnc(N[C@H]2CCCN(C(=O)C3CC3)C2)n1,IC50,[1]; read-out: IC50,6.2 nM
same,IC50,[11],359 nM
same,IC50,[12],268 nM
N#CCc1cnc(-c2ccc(Cl)c(Cl)c2)n1-c1ccnc(N[C@H]2CCCN(C(=O)NC3CC3)C2)n1,IC50,[1]; read-out: IC50,5.3 nM
same,IC50,[11],513 nM
same,IC50,[12],55.8 nM
N#CCc1cnc(-c2ccc(F)c(C(F)(F)F)c2)n1-c1ccnc(NC2CCOCC2)n1,IC50,[1]; read-out: IC50,421 nM
N#CCc1cnc(C2=CC3OCOC3C=C2)n1-c1ccnc(N[C@H]2CCCNC2)n1 (some centres undefined),IC50,[1]; read-out: IC50,> 10000 nM
N#CCc1cnc(-c2ccc3ccccc3n2)n1-c1ccnc(NC2CCOCC2)n1,IC50,[1]; read-out: IC50,13500 nM
N#CCc1cnc(-c2ccc3ccccc3c2)n1-c1ccnc(N[C@H]2CCCNC2)n1,IC50,[1]; read-out: IC50,> 10000 nM
NC(=O)N1Cc2nc(-c3ccc(Cl)c(Cl)c3)n(-c3ccnc(N[C@@H]4CCN(C(=O)C5CC5)C4)n3)c2C1,IC50,[16],> 3000 nM
N#CCc1cnc(-c2ccc3ccccc3c2)n1-c1ccnc(N[C@@H]2CCCN(C(=O)C3CC3)C2)n1,IC50,[1]; read-out: IC50,5 nM
same,IC50,[11],211 nM
same,IC50,[12],66.1 nM
N#CCc1cnc(-c2ccc(F)c(C(F)(F)F)c2)n1-c1ccnc(N[C@H]2CCCN(C(=O)C3CC3)C2)n1,IC50,[1]; read-out: IC50,3280 nM
C[C@@H](O)CNc1nccc(-n2c(CC#N)cnc2-c2ccc(F)c(C(F)(F)F)c2)n1,IC50,[1]; read-out: IC50,> 10000 nM
N#CCc1cnc(-c2ccc3c(c2)CCO3)n1-c1ccnc(N[C@H]2CCCN(C(=O)C3CC3)C2)n1,Papp,[17],8.91 ×10⁻⁶ cm/s
same,"efflux ratio at 1 h, 10 µM",[18],2.86
same,"Papp B→A at 1 h, 10 µM",[19],31.3 ×10⁻⁶ cm/s
same,"Papp A→B at 1 h, 10 µM",[20],11 ×10⁻⁶ cm/s
same,Activity,[21],Non-Toxic
same,Time,[22],21.91 s
same,Time,[23],71.1 s
same,Activity,[24],57.14%
same,Time,[25],22.5 s
same,Time,[26],21.55 s
same,Time,[27],40.1 s
same,Time,[28],34.7 s
same,Activity,[29],54.99%
same,Activity,[30],53.15%
same,Activity,[31],Non-Toxic
same,Activity,[32],Non-Toxic
same,Activity,[33],Non-Toxic
same,Activity,[34],Non-Toxic
same,Kp,[35],0.06
same,Cmax,[36],5910 ng/mL
same,Drug uptake,[37],357 ng/g
same,bioavailability,[38],86.2%
same,half-life,[39],68.4 min
same,half-life,[4],21.6 min
same,Tmax,[40],40.2 min
same,Cmax,[41],1240 ng/mL
same,AUC at 24 h,[8],1090 ng·h/mL
same,viability at 20 µM,[9],73.3%
same,viability at 20 µM,[10],46.3%
same,IC50,[1]; read-out: IC50,4.1 nM
same,IC50,[11],148 nM
same,IC50,[12],44 nM
